According to article PMC10487437 (International Journal of Molecular Sciences, 2023):
Primed or numbered codes have the meaning given here. * marks the point of attachment. Dabcyl′ = CN(C)c1ccc(/N=N/c2ccc(C(=O)*)cc2)cc1; EDANS = O=S(=O)(O)c1cccc2c(NCCN*)cccc12

B1: Dabcyl-KQ10PPD-EDANS (peptide)
peptide: {Dabcyl′}-KQQQQQQQQQQPPD-{EDANS}
SMILES: CN(C)c1ccc(/N=N/c2ccc(C(=O)N[C@@H](CCCCN)C(=O)N[C@@H](CCC(N)=O)C(=O)N[C@@H](CCC(N)=O)C(=O)N[C@@H](CCC(N)=O)C(=O)N[C@@H](CCC(N)=O)C(=O)N[C@@H](CCC(N)=O)C(=O)N[C@@H](CCC(N)=O)C(=O)N[C@@H](CCC(N)=O)C(=O)N[C@@H](CCC(N)=O)C(=O)N[C@@H](CCC(N)=O)C(=O)N[C@@H](CCC(N)=O)C(=O)N3CCC[C@H]3C(=O)N3CCC[C@H]3C(=O)N[C@@H](CC(=O)O)C(=O)NCCNc3cccc4c(S(=O)(=O)O)cccc34)cc2)cc1
B2: Dabcyl-KQ10GD-EDANS (peptide)
peptide: {Dabcyl′}-KQQQQQQQQQQGD-{EDANS}
SMILES: CN(C)c1ccc(/N=N/c2ccc(C(=O)N[C@@H](CCCCN)C(=O)N[C@@H](CCC(N)=O)C(=O)N[C@@H](CCC(N)=O)C(=O)N[C@@H](CCC(N)=O)C(=O)N[C@@H](CCC(N)=O)C(=O)N[C@@H](CCC(N)=O)C(=O)N[C@@H](CCC(N)=O)C(=O)N[C@@H](CCC(N)=O)C(=O)N[C@@H](CCC(N)=O)C(=O)N[C@@H](CCC(N)=O)C(=O)N[C@@H](CCC(N)=O)C(=O)NCC(=O)N[C@@H](CC(=O)O)C(=O)NCCNc3cccc4c(S(=O)(=O)O)cccc34)cc2)cc1
B3: Dabcyl-KQ5GD-EDANS (peptide)
peptide: {Dabcyl′}-KQQQQQGD-{EDANS}
SMILES: CN(C)c1ccc(/N=N/c2ccc(C(=O)N[C@@H](CCCCN)C(=O)N[C@@H](CCC(N)=O)C(=O)N[C@@H](CCC(N)=O)C(=O)N[C@@H](CCC(N)=O)C(=O)N[C@@H](CCC(N)=O)C(=O)N[C@@H](CCC(N)=O)C(=O)NCC(=O)N[C@@H](CC(=O)O)C(=O)NCCNc3cccc4c(S(=O)(=O)O)cccc34)cc2)cc1

Experiments:
[1] = target: 26S proteasome (mouse (endogenous in brain)) (UniProt Q60692)
[2] = target: 20S proteasome (mouse (endogenous in brain)) (UniProt Q60692)
[3] = tested on: T1, 20S proteasome from murine brain; assay: Specific peptidase activity of 20S proteasome with additives (Table S1); type: biochemical, mouse; conditions: for Specific peptidase activity using Suc-LLVY-AMC: 20S plus additive: 0.5 µM Bortezomib, 0.1 µM MG132, 0.02% SDS or 11S (1:2, mole:mole), 20S alone 2.37 ± 0.13
T1 construct: from tissue; host or cells: mouse brain
From the text: Characterization of puriﬁed proteasomes
teasomes. […] To conﬁrm that
cathepsin B [48] (Table S1).
reaction mixture for both 20S and 26S.
Table S1. Peptidase activity of the samples of 20S and 26S proteasome from murine brain.
The molar ratio between the proteasome

[4] = tested on: 26S proteasome from murine brain; assay: Specific peptidase activity of 26S proteasome with additives (Table S1)
[5] = tested on: T2, 26S+11S; assay: Apparent kinetic parameters of FRET substrate hydrolysis by 26S+11S complex; type: biochemical, mouse; conditions: for Km / Vmax·10^−2: apparent, 26S+11S, molar ratio 1:4, substrate 5 to 100 µM, 37 °C, means ± SEM of three independent experiments run in duplicate; for Km: Michaelis-Menten, fluorescence 340/490 nm, 1 h; for Vmax (+11S)/Vmax: ratio of Vmax by 26S+11S to Vmax by 26S, proteasome:11S 1:4
T2 construct: from tissue; host or cells: mouse brain

[6] = tested on: T3, 20S+11S; assay: Apparent kinetic parameters of FRET substrate hydrolysis by 20S+11S complex; type: biochemical, mouse; conditions: for Km / Vmax·10^−2: apparent, 20S+11S, molar ratio 1:4, substrate 5 to 100 µM, 37 °C, means ± SEM of three independent experiments run in duplicate; for Km: Michaelis-Menten, fluorescence 340/490 nm, 1 h; for Vmax (+11S)/Vmax: ratio of Vmax by 20S+11S to Vmax by 20S, proteasome:11S 1:4
T3 construct: from tissue; host or cells: mouse brain

[7] = tested on: T4, 26S proteasome; assay: Apparent kinetic parameters of FRET substrate hydrolysis by 26S proteasome; type: biochemical, mouse; conditions: substrate 5 to 100 µM, 37 °C, means ± SEM of three independent experiments run in duplicate; for Km: Michaelis-Menten, fluorescence 340/490 nm, 1 h
T4 construct: from tissue; host or cells: mouse brain

[8] = tested on: T5, 20S proteasome; assay: Determination of proteolysis sites of oligoglutamine peptides by LC-MS; type: biochemical, mouse; conditions: for Products of proteasomal hydrolysis identified: LC-MS, identical for all proteasome complexes (20S, 20S+11S, 26S, 26S+11S); for Peak of the starting substrate after incubation with 20S proteasome: incubation for 48 h, UPLC C18, UV-VIS and MS detection
T5 construct: from tissue; host or cells: mouse brain
Experimental: Next, we determined proteolysis sites for our oligoglutamine-containing peptides using liquid chromatography-mass spectrometry (LC-MS). The chromatogram of the Dabcyl-KQ5GD-EDANS solution in DMSO (Figure 3a) has a peak at the retention time of 1.69 min. According to the mass spectrum (Figure 3b), this peak corresponds to the Dabcyl-KQ5GD-EDANS (M = 1458.69 g/mole; z = 2; m/z = 729) molecule. Another fragment with m/z = 252 corresponds to the Dabcyl- (C15H14N3O), and the one with m/z = 380 corresponds to the DabcylK- (C21H26N5O2) fragment. These peaks are likely to arise due to fragmentation in a mass spectrometer since, upon hydrolysis, the masses of these fragments would be 269 and 397, respectively. After the incubation with proteasome for 48 h, the peak at 1.69 min disappeared (Figure 3c), and two other peaks appeared with retention times equal to 1.45 and 1.72 min. These peaks were assigned to the N- and C-ends of the peptide on the basis of the difference in the absorption spectra of the Dabcyl and EDANS moieties. […] Other products were not detected either at short (15 min) or longer hydrolysis times (72 h).
Next, we identified cleavage sites for the substrate with a longer oligoglutamine fragment (Figure 4). The peak with a retention time of 1.06 min (Figure 4a) that corresponds to the Dabcyl-KQ10PPD-EDANS (M = 2236.38 g/mole; z = 2; m/z = 1118) molecule (Figure 4b) disappeared after the substrate was incubated with the 20S proteasome for 48 h. Instead, two other peaks appeared, at 1.14 and 1.37 min (Figure 4c). According to UV spectra for both peaks, the fragment at 1.14 min had Dabcyl chromophore, and the second fragment carried EDANS fluorophore. Finally, according to mass calculation, the first product was attributed to the Dabcyl-KQ2 fragment (Figure 4d) and the second one to the Q7PPD-EDANS moiety (Figure 4e).
Peptide samples were analyzed on an Acquity UPLC system (Waters, Milford, MA, USA) connected to a PDA detector and TQD mass spectrometer (Waters). […] The gradient program was as follows: from 5%B to 50%B per 3 min, from 50%B to 5%B per 0.1 min, at a flow rate of 0.5 mL/min and a temperature of 35 °C. Solvent A: 20 mM formic acid in acetonitrile/water (1:20)/Solvent B: 20 mM formic acid in acetonitrile. Instrument settings and measuring parameters TQD were as follows: capillary voltage 3.5 kV; cone voltage 25 V; source temperature 120 °C; desolvation temperature 450 °C; cone gas flow 50 L/h; desolvation gas flow 800 L/h; MS1 scanning mass from 50 to 1500 Da; positive polarity. The PDA detector range was 220–500 nm. The resulting raw data were analyzed using the MassLynx software (version 4.1 SCN919).

[9] = tested on: T5, 20S proteasome; assay: Apparent kinetic parameters of FRET substrate hydrolysis by 20S proteasome; type: biochemical, mouse; conditions: substrate 5 to 100 µM, 37 °C, means ± SEM of three independent experiments run in duplicate; for Km: Michaelis-Menten, fluorescence 340/490 nm, 1 h
[10] = means ± SEM of three independent experiments run in duplicate

26S proteasome (mouse (endogenous in brain)), sequence (Q60692 whole entry, looked up): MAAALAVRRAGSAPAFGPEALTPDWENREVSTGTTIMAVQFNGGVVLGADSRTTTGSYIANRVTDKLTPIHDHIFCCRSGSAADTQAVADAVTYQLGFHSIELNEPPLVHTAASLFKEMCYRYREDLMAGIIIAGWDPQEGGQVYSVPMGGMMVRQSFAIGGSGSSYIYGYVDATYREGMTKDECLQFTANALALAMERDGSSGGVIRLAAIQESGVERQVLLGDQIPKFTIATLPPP
20S proteasome (mouse (endogenous in brain)), sequence (Q60692 whole entry, looked up): as above

Row | Molecule | Km [5] [µM] | Vmax·10^−2 [5] | Vmax (+11S)/Vmax [5] | Km [6] [µM] | Vmax·10^−2 [6] | Vmax (+11S)/Vmax [6] | Km [7] [µM] | Vmax·10^−2 [7] | Km [9] [µM] | Vmax·10^−2 [9] | apparent Km of hydrolysis by 26S+11S (proteasome:11S 1:4) [1] [µM] | apparent Km of hydrolysis by the 26S proteasome [1] [µM] | apparent Km of hydrolysis by 20S+11S (proteasome:11S 1:4) [2] [µM] | apparent Km of hydrolysis by the 20S proteasome [2] [µM] | further results
1 | 11S regulator (PA28αβ) (from UniProt P97371 1-249; P97372 1-239) (complex) |  |  |  |  |  |  |  |  |  |  |  |  |  |  | Vmax (+11S)/Vmax of hydrolysis of Dabcyl-KQ5GD-EDANS by the 26S proteasome, proteasome:11S 1:4 [1]: 1; Vmax (+11S)/Vmax of hydrolysis of Dabcyl-KQ10GD-EDANS by the 26S proteasome, proteasome:11S 1:4 [1]: 1.4; Vmax (+11S)/Vmax of hydrolysis of Dabcyl-KQ10PPD-EDANS by the 26S proteasome, proteasome:11S 1:4 [1]: 2; Vmax (+11S)/Vmax of hydrolysis of Dabcyl-KQ5GD-EDANS by the 20S proteasome, proteasome:11S 1:4 [2]: 2.7; Vmax (+11S)/Vmax of hydrolysis of Dabcyl-KQ10GD-EDANS by the 20S proteasome, proteasome:11S 1:4 [2]: 1.5; Vmax (+11S)/Vmax of hydrolysis of Dabcyl-KQ10PPD-EDANS by the 20S proteasome, proteasome:11S 1:4 [2]: 2.3
2 | 11S: 11S proteasomal regulator (PA28) consisting of α/β subunits, isolated from mouse brain |  |  |  |  |  |  |  |  |  |  |  |  |  |  | Specific peptidase activity using Suc-LLVY-AMC [3, 10]: 8.8 ± 0.4 nM/min/µg; Specific peptidase activity using Z-LLE-AMC ([3]; 20S+11S (1:2, mole:mole), 20S alone 1.14 ± 0.02, means ± SEM of three independent experiments run in duplicate): 5.2 ± 0.1 nM/min/µg; Specific peptidase activity using Ac-RLR-AMC ([3]; 20S+11S (1:2, mole:mole), 20S alone 2.78 ± 0.07, means ± SEM of three independent experiments run in duplicate): 8.4 ± 0.2 nM/min/µg; Specific peptidase activity using Ac-RLR-AMC ([4]; 26S+11S (1:2, mole:mole), 26S alone 1.92 ± 0.06, means ± SEM of three independent experiments run in duplicate): 2.5 ± 0.2 nM/min/µg; Specific peptidase activity using Z-LLE-AMC ([4]; 26S+11S (1:2, mole:mole), 26S alone 5.4 ± 0.1, means ± SEM of three independent experiments run in duplicate): 6.7 ± 0.5 nM/min/µg
3 | CCCCCCCCCCCCOS(=O)(=O)[O-].[Na+] [SDS] |  |  |  |  |  |  |  |  |  |  |  |  |  |  | Specific peptidase activity using Suc-LLVY-AMC [3, 10]: 34 ± 6 nM/min/µg; Increase of the activity of the 20S proteasome ([3]; in the presence of 0.02% SDS): 13–15 times; Effect on the 26S proteasome activity ([4]; in the presence of 0.02% SDS): completely inhibited
4 | Dabcyl-KQ5GD-EDANS [internally quenched fluorogenic FRET substrate with five glutamine residues, EDANS-Dabcyl pair] | 52 ± 10 | 2.1 ± 0.3 10^−2 μM·min^−1 | 1.0 | 60 ± 8 | 6.1 ± 1.4 10^−2 μM·min^−1 | 2.7 | 54 ± 10 | 2.0 ± 0.3 10^−2 μM·min^−1 | 52 ± 8 | 2.3 ± 0.3 10^−2 μM·min^−1 |  |  |  |  | Products of proteasomal hydrolysis identified [8]: Dabcyl-KQ2 and QGD-EDANS; Peak of the starting substrate after incubation with 20S proteasome [8]: disappeared
5 | Dabcyl-KQ10GD-EDANS [internally quenched fluorogenic FRET substrate with ten glutamine residues, EDANS-Dabcyl pair] | 38 ± 9 | 0.12 ± 0.03 10^−2 μM·min^−1 | 1.4 | 64 ± 14 | 0.92 ± 0.15 10^−2 μM·min^−1 | 1.5 | 18 ± 2 | 0.09 ± 0.01 10^−2 μM·min^−1 | 40 ± 3 | 0.61 ± 0.02 10^−2 μM·min^−1 |  |  |  |  | 
6 | Dabcyl-KQ10PPD-EDANS | 20 ± 4.6 | 4.73 ± 0.35 10^−2 μM·min^−1 | 2.0 | 5.3 ± 1.3 | 1.66 ± 0.07 10^−2 μM·min^−1 | 2.3 | 24.5 ± 10 | 2.3 ± 0.2 10^−2 μM·min^−1 | 8.2 ± 1.5 | 0.73 ± 0.03 10^−2 μM·min^−1 |  |  |  |  | Products of proteasomal hydrolysis identified [8]: Dabcyl-KQ2 and Q7PPD-EDANS; Peak of the starting substrate after incubation with 20S proteasome [8]: disappeared
7 | B1 |  |  |  |  |  |  |  |  |  |  | 20 | 24.5 | 5.3 | 8.2 | 
8 | B2 |  |  |  |  |  |  |  |  |  |  | 38 | 18 | 64 | 40 | 
9 | B3 |  |  |  |  |  |  |  |  |  |  | 52 | 54 | 60 | 52 | 
